Experimental data: patent US11833229B2, “Labeling precursors with squaric acid coupling” (SCV—SpezialChemikalienVertrieb GmbH, priority 2019, dated 2023)
One block for each compound: values may come before it.

Legend:
[1] = PET scans of bone tracers in young healthy rats; assay type: in vivo, Wistar rats
Procedure: The tracer NOTA.QS.PAM according to the invention and the clinically established reference tracer DOTA^Zol were labeled with ^68Ga, injected into young healthy Wistar rats, followed by recording of PET scans at intervals of 5 min, 60 min and 120 min after injection.
Both tracers are characterized by renal excretion and low retention in the remaining tissue.

PREP = molecular target: T1, PREP (Homo sapiens, UniProt P48147); assay: PREP IC50 using N-succinyl-Gly-Pro-AMC; assay type: biochemical; conditions: substrate N-succinyl-Gly-Pro-AMC
T1 sequence (P48147 1-710): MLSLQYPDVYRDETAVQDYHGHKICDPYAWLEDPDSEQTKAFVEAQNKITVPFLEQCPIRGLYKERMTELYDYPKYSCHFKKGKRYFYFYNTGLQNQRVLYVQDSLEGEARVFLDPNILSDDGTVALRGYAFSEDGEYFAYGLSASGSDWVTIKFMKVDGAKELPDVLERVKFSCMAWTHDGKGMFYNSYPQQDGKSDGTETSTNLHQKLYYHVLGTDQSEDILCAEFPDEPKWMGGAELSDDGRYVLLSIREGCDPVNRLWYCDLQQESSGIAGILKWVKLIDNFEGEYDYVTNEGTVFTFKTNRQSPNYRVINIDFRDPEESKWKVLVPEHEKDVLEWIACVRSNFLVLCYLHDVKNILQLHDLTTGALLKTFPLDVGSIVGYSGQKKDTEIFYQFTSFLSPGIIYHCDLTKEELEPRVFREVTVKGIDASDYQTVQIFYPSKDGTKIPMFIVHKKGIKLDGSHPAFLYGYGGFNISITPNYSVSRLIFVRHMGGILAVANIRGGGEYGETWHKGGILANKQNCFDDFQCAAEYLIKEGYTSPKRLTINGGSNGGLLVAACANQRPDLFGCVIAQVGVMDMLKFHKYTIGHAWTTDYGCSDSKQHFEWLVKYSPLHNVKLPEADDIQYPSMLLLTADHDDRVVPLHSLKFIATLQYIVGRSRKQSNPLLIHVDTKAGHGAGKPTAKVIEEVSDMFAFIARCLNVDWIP
Procedure: (§1) The FAP IC50 values were measured using Z-Gly-Pro-7-amino-4-methylcoumarin (AMC). The PREP IC50 values were determined using N-succinyl-Gly-Pro-AMC.

FAP = molecular target: T2, FAP (Homo sapiens, UniProt Q12884); assay: FAP IC50 using Z-Gly-Pro-7-amino-4-methylcoumarin (AMC); assay type: biochemical
T2 sequence (Q12884 1-760): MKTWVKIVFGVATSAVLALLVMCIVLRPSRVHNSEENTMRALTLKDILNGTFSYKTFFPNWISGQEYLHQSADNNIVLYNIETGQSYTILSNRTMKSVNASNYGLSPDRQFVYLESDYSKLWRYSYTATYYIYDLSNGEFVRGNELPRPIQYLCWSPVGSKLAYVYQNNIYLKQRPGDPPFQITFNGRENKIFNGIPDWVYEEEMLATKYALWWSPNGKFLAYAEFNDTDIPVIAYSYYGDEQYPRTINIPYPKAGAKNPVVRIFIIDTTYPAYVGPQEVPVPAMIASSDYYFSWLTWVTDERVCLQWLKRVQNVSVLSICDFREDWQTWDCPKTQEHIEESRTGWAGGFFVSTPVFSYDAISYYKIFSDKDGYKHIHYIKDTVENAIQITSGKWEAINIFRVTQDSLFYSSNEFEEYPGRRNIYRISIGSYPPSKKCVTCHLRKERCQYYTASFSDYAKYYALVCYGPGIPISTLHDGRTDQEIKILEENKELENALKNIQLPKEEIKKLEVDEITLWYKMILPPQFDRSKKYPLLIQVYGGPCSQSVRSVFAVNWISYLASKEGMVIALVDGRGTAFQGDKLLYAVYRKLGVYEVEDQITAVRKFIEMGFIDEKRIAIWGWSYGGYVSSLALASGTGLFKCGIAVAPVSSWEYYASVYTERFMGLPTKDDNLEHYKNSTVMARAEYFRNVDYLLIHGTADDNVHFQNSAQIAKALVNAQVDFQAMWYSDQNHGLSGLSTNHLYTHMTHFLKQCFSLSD
Procedure: as §1

LNCaP tumor [2] = assay: PET preclinical comparative tests of PSMA radiotracers (SUV); conditions: 68Ga-labeled tracer; for SUV Nieren: kidneys (Nieren); for SUV Leber: liver (Leber)
LNCaP tumor [3] = assay: Biological distribution by extraction of organs (ex vivo), PSMA tracers; assay type: in vivo, NMRInu/nu nude mice; conditions: for tumor activity (biological distribution): compared with 68Ga-PSMA-11 and 68Ga-PSMA-617
From the text: In addition, PET was used to carry out preclinical ex vivo tests with the radiotracers of type [^68Ga]Ga-DOTA.QS.PSMA, [^68Ga]Ga-PSMA-11 and [^68Ga] Ga-PSMA-617 on NMRInu/nu nude mice with an LNCap tumor. […] The results obtained underline those obtained in the in vivo tests.

tumor = assay: Ex vivo activities of 68Ga-DATA.QS.PSMA and 68Ga-PSMA-11; assay type: in vivo; conditions: ± SD
From the text: The results of ex vivo investigations (FIGS. 41-43) are in agreement with the in vivo observations.

SUV femur ([1]; 68Ga-labeled, organ distribution, femur): 3.7±0.4
Structure (SMILES): O=C(O)CN1CCN(CC(=O)O)CCN(CC(=O)NCCc2cncn2CC(O)(P(=O)(O)O)P(=O)(O)O)CCN(CC(=O)O)CC1.[68Ga+3] [^68Ga-DOTA^Zol, reference compound]

Ex vivo activity LN (tumor; LN): 0.66 ± 0.10 % ID/g
Ex vivo activity blood (tumor; blood): 0.27 ± 0.03 % ID/g
Ex vivo activity bone (tumor; bone): 0.15 ± 0.04 % ID/g
Ex vivo activity heart (tumor; heart): 0.17 ± 0.03 % ID/g
Ex vivo activity kidney left (tumor; kidney left): 36.66 ± 5.05 % ID/g
Ex vivo activity kidney right (tumor; kidney right): 36.72 ± 4.33 % ID/g
Ex vivo activity liver (tumor; liver): 0.23 ± 0.04 % ID/g
Ex vivo activity lung (tumor; lung): 0.74 ± 0.04 % ID/g
Ex vivo activity muscle (tumor; muscle): 0.11 ± 0.03 % ID/g
Ex vivo activity salivary glands (tumor; salivary glands): 0.54 ± 0.11 % ID/g
Ex vivo activity small intestine (tumor; small intestine): 0.50 ± 0.14 % ID/g
Ex vivo activity spleen (tumor; spleen): 3.12 ± 0.39 % ID/g
Ex vivo activity tumor (tumor; tumor): 5.51 ± 0.38 % ID/g
Structure (SMILES): O=C([O-])CN(CCN(CC(=O)[O-])Cc1cc(CCC(=O)NCCCCCC(=O)NCCCC[C@H](NC(=O)N[C@@H](CCC(=O)O)C(=O)O)C(=O)O)ccc1[O-])Cc1cc(CCC(=O)O)ccc1[O-].[68Ga+3].[OH3+] [^68Ga.PSMA 11, reference compound]

SUV femur ([1]; rat, in vivo): 4.5±0.2
renal excretion ([1]; rat, in vivo): slightly reduced
Structure (SMILES): O=C(O)CN1CCN(CC(=O)O)CCN(C(CCC(=O)NCCNc2c(NCCC(O)(P(=O)(O)O)P(=O)(O)O)c(=O)c2=O)C(=O)O)CC1.[68Ga+3] (centres unmarked) [^68Ga-NOTA.QS.PAM]

Second part, the compound before the results:

Structure (SMILES): N#C[C@@H]1CC(F)(F)CN1C(=O)CNC(=O)c1ccnc2ccc(OCCCCNc3c(NCCNC(=O)CN4CCN(CC(=O)O)CCN(CC(=O)O)CCN(CC(=O)O)CC4)c(=O)c3=O)cc12 [DOTA.QS.FAPi - uncomplexed]
IC50 (PREP): 5.4 ± 0.3 µM
Selectivity index (FAP/PREP) (FAP; from IC50 FAP and IC50 PREP): 6000
IC50 (FAP; substrate Z-Gly-Pro-AMC): 0.0009 ± 0.0001 µM

Structure (SMILES): O=C(O)CCC(NC(=O)NC(CCCCNc1c(NCCNC(=O)CCC(C(=O)O)N2CCN(CC(=O)O)CCN(CC(=O)O)CCN(CC(=O)O)CC2)c(=O)c1=O)C(=O)O)C(=O)O.[68Ga+3] (centres unmarked) [^68Ga-DOTA.QS.PSMA]
SUV Tumor (LNCaP tumor [2]): 0.73
off-target activity in the kidneys (LNCaP tumor [3]; compared with 68Ga-PSMA-11): significantly lower
tumor activity (biological distribution) (LNCaP tumor [3]): slightly lower or equal
tumor activity (biological distribution) (LNCaP tumor [3]; listed as [^68Ga]Ga-DOTA.QS.PSMA): slightly lower or the same

Structure (SMILES): O=C(O)CCc1ccc(O)c(CN(CCN(CC(=O)O)Cc2cc(CCC(=O)NCCCCCC(=O)NCCCC[C@H](NC(=O)N[C@@H](CCC(=O)O)C(=O)O)C(=O)O)ccc2O)CC(=O)O)c1 [PSMA-11, reference compound]
SUV Nieren (LNCaP tumor [2]): 4.71
SUV Leber (LNCaP tumor [2]): 0.25
SUV Tumor (LNCaP tumor [2]): 1.16

Structure (SMILES): O=C(O)CCC(NC(=O)NC(CCCCNc1c(NCCNC(=O)CCC(C(=O)O)N2CCN(CC(=O)O)CCN(CC(=O)O)CCN(CC(=O)O)CC2)c(=O)c1=O)C(=O)O)C(=O)O (centres unmarked) [DOTA.QS.PSMA]
SUV Nieren (LNCaP tumor [2]): 0.43
SUV Leber (LNCaP tumor [2]): 0.27
SUV Tumor (LNCaP tumor [2]): 0.73
